Test results: paper PMC3156385 (Chemical research in toxicology, 2011)

Assays:
P450 2A13 [1] = molecular target: T1, P450 2A13 (Homo sapiens, UniProt Q16696); assay: Spectral binding titration with purified recombinant P450 2A13; conditions: for ΔAmax/Ks / ΔAmax: Type I binding, 1 µM P450; for ΔAmax: means ± SE
T1 sequence (Q16696 1-494): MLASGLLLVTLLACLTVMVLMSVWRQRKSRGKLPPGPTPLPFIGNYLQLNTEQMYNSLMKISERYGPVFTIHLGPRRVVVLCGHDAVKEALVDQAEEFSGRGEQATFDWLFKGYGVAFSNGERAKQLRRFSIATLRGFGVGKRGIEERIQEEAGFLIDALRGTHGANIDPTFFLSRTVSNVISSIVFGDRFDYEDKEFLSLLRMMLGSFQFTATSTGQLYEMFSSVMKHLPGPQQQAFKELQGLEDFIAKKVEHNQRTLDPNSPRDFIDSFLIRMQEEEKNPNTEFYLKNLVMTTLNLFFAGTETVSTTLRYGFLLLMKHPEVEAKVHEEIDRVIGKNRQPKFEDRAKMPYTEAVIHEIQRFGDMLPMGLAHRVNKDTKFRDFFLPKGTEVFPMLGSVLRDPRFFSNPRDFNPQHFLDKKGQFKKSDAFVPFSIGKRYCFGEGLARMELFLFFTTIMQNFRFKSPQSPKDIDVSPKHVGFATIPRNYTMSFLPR

P450 1A2 [2] = molecular target: T2, P450 1A2 (Homo sapiens, UniProt P05177); assay: Inhibition of P450 1A2-dependent EROD activity; assay type: biochemical
T2 sequence (P05177 1-516): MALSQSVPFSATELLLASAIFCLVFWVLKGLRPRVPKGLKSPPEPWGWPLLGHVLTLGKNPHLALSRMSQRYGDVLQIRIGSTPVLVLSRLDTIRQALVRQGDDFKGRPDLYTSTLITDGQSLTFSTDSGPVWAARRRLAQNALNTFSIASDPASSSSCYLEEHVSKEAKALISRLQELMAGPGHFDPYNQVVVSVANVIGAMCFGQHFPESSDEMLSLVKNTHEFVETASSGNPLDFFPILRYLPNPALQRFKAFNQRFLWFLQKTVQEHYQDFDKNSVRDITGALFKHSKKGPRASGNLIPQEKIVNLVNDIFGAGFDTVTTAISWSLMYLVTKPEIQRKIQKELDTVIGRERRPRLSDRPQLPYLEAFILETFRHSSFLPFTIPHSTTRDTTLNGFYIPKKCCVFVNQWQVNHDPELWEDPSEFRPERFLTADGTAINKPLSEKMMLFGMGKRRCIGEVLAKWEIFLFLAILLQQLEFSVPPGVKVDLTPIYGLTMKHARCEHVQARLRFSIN

P450 1A1 [3] = molecular target: T3, P450 1A1 (Homo sapiens, UniProt P04798); assay: Spectral binding titration with purified recombinant P450 1A1; conditions: for ΔAmax/Ks / ΔAmax: Reverse Type I binding, 1 µM P450; for ΔAmax: means ± SE
T3 sequence (P04798 1-512): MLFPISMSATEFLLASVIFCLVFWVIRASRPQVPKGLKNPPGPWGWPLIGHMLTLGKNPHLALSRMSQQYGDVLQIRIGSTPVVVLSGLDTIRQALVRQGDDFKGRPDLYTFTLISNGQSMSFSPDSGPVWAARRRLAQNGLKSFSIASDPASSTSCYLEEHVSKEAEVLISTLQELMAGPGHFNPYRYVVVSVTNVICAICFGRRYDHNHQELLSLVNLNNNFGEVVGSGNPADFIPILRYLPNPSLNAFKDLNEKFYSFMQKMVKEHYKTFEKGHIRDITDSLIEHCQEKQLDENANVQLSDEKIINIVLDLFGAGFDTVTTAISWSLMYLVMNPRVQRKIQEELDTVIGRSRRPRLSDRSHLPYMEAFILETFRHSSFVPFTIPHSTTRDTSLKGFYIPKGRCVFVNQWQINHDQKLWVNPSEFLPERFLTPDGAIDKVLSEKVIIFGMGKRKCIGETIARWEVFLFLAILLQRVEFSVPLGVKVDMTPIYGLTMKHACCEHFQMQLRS

P450 2A6 [4] = molecular target: T4, P450 2A6 (Homo sapiens, UniProt P11509); assay: Inhibition of P450 2A6-dependent coumarin 7-hydroxylation; assay type: biochemical
T4 sequence (P11509 1-494): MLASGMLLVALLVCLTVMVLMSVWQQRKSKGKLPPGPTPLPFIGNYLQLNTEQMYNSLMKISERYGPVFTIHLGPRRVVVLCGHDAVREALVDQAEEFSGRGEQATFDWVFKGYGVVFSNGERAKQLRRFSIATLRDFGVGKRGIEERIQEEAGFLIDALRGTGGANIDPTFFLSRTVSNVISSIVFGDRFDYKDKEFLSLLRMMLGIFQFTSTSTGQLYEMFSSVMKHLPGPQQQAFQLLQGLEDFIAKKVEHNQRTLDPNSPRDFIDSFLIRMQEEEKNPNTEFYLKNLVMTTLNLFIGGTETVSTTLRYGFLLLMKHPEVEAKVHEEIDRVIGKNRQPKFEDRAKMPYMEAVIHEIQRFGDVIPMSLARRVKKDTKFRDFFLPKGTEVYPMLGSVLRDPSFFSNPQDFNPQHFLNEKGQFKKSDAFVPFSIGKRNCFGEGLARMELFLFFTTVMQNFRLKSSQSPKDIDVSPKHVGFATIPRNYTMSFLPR

P450 1A2 [5] = molecular target: T2, P450 1A2; assay: Spectral binding titration with purified recombinant P450 1A2; conditions: for ΔAmax/Ks / ΔAmax: Reverse Type I binding, 1 µM P450; for ΔAmax: means ± SE
P450 1A1 [6] = molecular target: T3, P450 1A1; assay: Inhibition of P450 1A1-dependent EROD activity; assay type: biochemical
P450 1B1 [7] = molecular target: T5, P450 1B1 (Homo sapiens, UniProt Q16678); assay: Inhibition of P450 1B1-dependent EROD activity; assay type: biochemical
T5 sequence (Q16678 1-543): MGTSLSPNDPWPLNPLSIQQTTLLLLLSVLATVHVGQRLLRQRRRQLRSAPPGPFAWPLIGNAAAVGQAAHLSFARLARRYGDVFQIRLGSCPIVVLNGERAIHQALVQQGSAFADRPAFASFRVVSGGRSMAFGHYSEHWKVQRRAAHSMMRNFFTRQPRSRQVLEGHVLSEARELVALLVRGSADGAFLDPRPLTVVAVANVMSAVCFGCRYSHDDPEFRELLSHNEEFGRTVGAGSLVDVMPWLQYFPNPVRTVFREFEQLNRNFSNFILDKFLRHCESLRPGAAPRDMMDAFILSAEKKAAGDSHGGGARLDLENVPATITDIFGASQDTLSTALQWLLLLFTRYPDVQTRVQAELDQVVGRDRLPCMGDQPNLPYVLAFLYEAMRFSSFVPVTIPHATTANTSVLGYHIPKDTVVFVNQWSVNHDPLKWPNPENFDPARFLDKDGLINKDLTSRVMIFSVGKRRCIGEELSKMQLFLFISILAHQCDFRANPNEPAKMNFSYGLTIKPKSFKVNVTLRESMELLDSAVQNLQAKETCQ

P450 2A6 [8] = molecular target: T4, P450 2A6; assay: Spectral binding titration with purified recombinant P450 2A6; conditions: for ΔAmax/Ks / ΔAmax: Type I binding, 1 µM P450; for ΔAmax: means ± SE
P450 1B1 [9] = molecular target: T5, P450 1B1; assay: Spectral binding titration with purified recombinant P450 1B1; conditions: for ΔAmax/Ks / ΔAmax: Reverse Type I binding, 1 µM P450; for ΔAmax: means ± SE
P450 2A13 [10] = molecular target: T1, P450 2A13; assay: Inhibition of P450 2A13-dependent coumarin 7-hydroxylation; assay type: biochemical
[11] = rats; cited from earlier work

N#C[Se]Cc1ccccc1C[Se]C#N [o-XSC, 1,2-phenylenebis(methylene)selenocyanate]
Kd (P450 2A13 [1]): 750 ± 44 nM | ΔAmax/Ks (P450 2A13 [1]): 92.00 × 10^−3 | ΔAmax (P450 2A13 [1]): 69 ± 0.49 × 10^−3 | IC50 (P450 1A2 [2]): 390 ± 42 nM | Kd (P450 1A1 [3]): 26000 ± 4600 nM | ΔAmax/Ks (P450 1A1 [3]): 0.77 × 10^−3 | ΔAmax (P450 1A1 [3]): 20 ± 1.2 × 10^−3 | IC50 (P450 2A6 [4]): 2700 ± 340 nM | ΔAmax/Ks (P450 1A2 [5]): 0.38 × 10^−3 | ΔAmax (P450 1A2 [5]): 2.4 ± 0.20 × 10^−3 | IC50 (P450 1A1 [6]): 110 ± 21 nM | IC50 (P450 1B1 [7]): 140 ± 27 nM | Kd (P450 2A6 [8]): 5100 ± 450 nM | ΔAmax/Ks (P450 2A6 [8]): 7.80 × 10^−3 | ΔAmax (P450 2A6 [8]): 40 ± 0.82 × 10^−3 | Kd (P450 1B1 [9]): 4600 ± 750 nM | ΔAmax/Ks (P450 1B1 [9]): 3.30 × 10^−3 | ΔAmax (P450 1B1 [9]): 15 ± 0.51 × 10^−3 | IC50 (P450 2A13 [10]): 1200 ± 130 nM

N#C[Se]Cc1ccc(C[Se]C#N)cc1 [p-XSC, 1,4-phenylenebis(methylene)selenocyanate]
Kd (P450 2A13 [1]): 1500 ± 280 nM | ΔAmax/Ks (P450 2A13 [1]): 46.00 × 10^−3 | ΔAmax (P450 2A13 [1]): 69 ± 2.6 × 10^−3 | IC50 (P450 1A2 [2]): 630 ± 59 nM | Kd (P450 1A1 [3]): 19000 ± 1600 nM | ΔAmax/Ks (P450 1A1 [3]): 0.45 × 10^−3 | ΔAmax (P450 1A1 [3]): 8.6 ± 0.24 × 10^−3 | IC50 (P450 2A6 [4]): 6200 ± 550 nM | Kd (P450 1A2 [5]): 12000 ± 1200 nM | ΔAmax/Ks (P450 1A2 [5]): 0.81 × 10^−3 | ΔAmax (P450 1A2 [5]): 9.7 ± 0.40 × 10^−3 | IC50 (P450 1A1 [6]): 260 ± 31 nM | IC50 (P450 1B1 [7]): 160 ± 9 nM | Kd (P450 2A6 [8]): 14000 ± 1900 nM | ΔAmax/Ks (P450 2A6 [8]): 2.20 × 10^−3 | ΔAmax (P450 2A6 [8]): 31 ± 1.2 × 10^−3 | Kd (P450 1B1 [9]): 3600 ± 330 nM | ΔAmax/Ks (P450 1B1 [9]): 5.83 × 10^−3 | ΔAmax (P450 1B1 [9]): 21 ± 0.48 × 10^−3 | IC50 (P450 2A13 [10]): 1400 ± 210 nM

N#C[Se]Cc1ccc(C[Se]C#N)cc1 [p-[^14C]XSC, 1,4-[^14C]phenylenebis(methylene)selenocyanate]
cumulative percentage of radioactivity excreted in feces [11]: 75% | cumulative percentage of radioactivity excreted in urine [11]: 24%
